Measured values published in patent US8252958B2, “Use of guanabenz and its derivatives for making drugs for treating cystic fibrosis and diseases related to a protein addressing deficiency in the cells” (Centre National de la Recherche Scientifique (CNRS), priority 2006, dated 2012).

What was measured:
delF508-CFTR [1] = target: T1, delF508-CFTR (Homo sapiens, UniProt P13569, DEL508-508); experiment: Iodide efflux (radiotracer) after 2 h treatment of CF15 cells, forskolin activation; format: cell-based
T1 construct: The CF15 cells are human epithelial cells of nasal origin which express the ΔF508-CFTR gene; endogenous in cells; host or cells: CF15 human airway epithelial cells (F508del/F508del)

delF508-CFTR [2] = target: T1, delF508-CFTR; experiment: Competition experiments by the iodide efflux technique between guanabenz and the chaperone machinery of the ER; format: cell-based
Description: The measurements of chloride ion transport in the cells were performed with the aid of the radioactive iodide efflux technique (Becq et al., 1999; Dormer et al., 2001). The tracer (^125I) is incorporated into the intracellular medium. Next, the quantity of radiotracer which leaves the cell is counted after the addition of various pharmacological agents. The iodide is used as chloride ion transport tracer. ^125I further has the advantage of having a short life compared with that of other markers such as […] (respective ½ life: […] and 300 000 years).
The cells are cultured on 24-well plates in a suitable medium. Two rinses with efflux medium (NaCl: 136.6 mM, KCl: 5.4 mM, KH2PO4: 0.3 mM, NaH2PO4: 0.3 mM, NaHCO3: 4.2 mM, CaCl2: 1.3 mM, MgCl2: 0.5 mM, MgSO4: 0.4 Mm, HEPES: 10 mM, D-glucose: 5.6 mM) are performed in order to remove the dead cells which anarchically release radioactivity. Next, the cells are incubated with 500 μl of load (1 μCi/ml of ^125INa) for 30 min for the CHO-WT cells or 1 h for the CF15 and Calu-3 cells. The iodide forms an equilibrium on either side of the cell membrane. The robot (MultiPROBE, Packard) carries out the following steps: the load medium is rinsed with efflux medium in order to remove the extracellular radioactivity. The supernatant is collected every minute in hemolysis tubes and the medium is replaced with an equivalent volume (500 μl). No drug is added to the samples collected for the first 3 minutes, they make it possible to obtain a stable baseline, characterizing the passive outflow of the I ions. […] At the end of the experiment, the cells are lysed by adding 500 μl of NaOH (0.1N)/0.1% SDS (30 min), thus the radioactivity remaining inside the cell can be determined. The radioactivity present in the hemolysis tubes is counted in counts per minute (cpm) using a gamma counter (Cobra II, Packard). […] In order to quantify the outflow of iodide due to the administration of the test molecule, the following relative flow is calculated, which makes it possible to dispense with the basal flow: relative speed (min^−1)=Rpic−Rbasal. […]

T1 sequence (P13569 with tags, fused parts or gaps DEL508-508): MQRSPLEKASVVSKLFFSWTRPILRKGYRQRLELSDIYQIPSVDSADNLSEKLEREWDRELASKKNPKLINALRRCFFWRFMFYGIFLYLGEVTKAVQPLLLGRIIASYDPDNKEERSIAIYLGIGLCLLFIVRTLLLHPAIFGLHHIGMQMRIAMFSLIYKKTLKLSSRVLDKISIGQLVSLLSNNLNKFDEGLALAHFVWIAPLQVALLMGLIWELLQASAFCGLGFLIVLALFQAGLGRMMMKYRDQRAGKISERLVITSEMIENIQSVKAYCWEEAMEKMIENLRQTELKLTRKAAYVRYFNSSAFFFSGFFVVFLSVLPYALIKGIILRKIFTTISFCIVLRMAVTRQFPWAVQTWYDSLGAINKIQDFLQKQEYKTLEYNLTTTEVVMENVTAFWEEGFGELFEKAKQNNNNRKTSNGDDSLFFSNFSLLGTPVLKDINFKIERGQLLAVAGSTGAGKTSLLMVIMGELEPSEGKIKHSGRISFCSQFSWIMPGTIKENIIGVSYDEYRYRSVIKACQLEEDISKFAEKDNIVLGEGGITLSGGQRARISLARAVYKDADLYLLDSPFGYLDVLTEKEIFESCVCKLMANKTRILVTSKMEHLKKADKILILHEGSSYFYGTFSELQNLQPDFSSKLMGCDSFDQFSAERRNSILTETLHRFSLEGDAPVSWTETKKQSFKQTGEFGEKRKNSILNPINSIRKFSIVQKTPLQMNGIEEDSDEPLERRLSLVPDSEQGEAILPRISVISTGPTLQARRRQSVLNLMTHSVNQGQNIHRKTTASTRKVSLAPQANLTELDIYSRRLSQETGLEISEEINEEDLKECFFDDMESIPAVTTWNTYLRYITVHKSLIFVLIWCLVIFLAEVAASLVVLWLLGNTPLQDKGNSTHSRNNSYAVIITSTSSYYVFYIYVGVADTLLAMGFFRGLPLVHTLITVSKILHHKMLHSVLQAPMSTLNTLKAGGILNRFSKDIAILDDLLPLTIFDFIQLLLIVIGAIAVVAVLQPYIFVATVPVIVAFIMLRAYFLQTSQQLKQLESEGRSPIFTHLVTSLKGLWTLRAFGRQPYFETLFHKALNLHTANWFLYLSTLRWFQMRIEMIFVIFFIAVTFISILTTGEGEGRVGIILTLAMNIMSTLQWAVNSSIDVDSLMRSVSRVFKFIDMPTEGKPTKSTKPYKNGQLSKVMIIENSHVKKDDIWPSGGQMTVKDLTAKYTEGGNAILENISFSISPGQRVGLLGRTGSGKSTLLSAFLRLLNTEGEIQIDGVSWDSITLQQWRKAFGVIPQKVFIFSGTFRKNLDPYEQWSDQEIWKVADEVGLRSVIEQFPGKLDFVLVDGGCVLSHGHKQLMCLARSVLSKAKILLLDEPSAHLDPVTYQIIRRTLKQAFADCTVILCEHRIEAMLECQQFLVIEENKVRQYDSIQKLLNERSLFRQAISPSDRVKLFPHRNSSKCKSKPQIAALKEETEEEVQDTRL

- EC50 (delF508-CFTR [1]; CF15 cells, 2 h of treatment, iodide efflux, read-out: EC50 of readdressing of the protein F508del-CFTR): 40 µM
- effect of guanabenz in the presence of Brefeldine-A (BFA) (delF508-CFTR [2]; BFA, inhibitor of vesicular ERGIC traffic): inhibition of the effect of guanabenz
- effect of guanabenz in the presence of MG132 (delF508-CFTR [2]; MG132, proteasome inhibitor): No modulation of the effect of guanabenz
SMILES: N=C(N)N/N=C/c1c(Cl)cccc1Cl [guanabenz]
- readdressing of the mutated protein F508del-CFTR to the membrane (delF508-CFTR [1]; CF15 cells (F508del/F508del) treated with guanabenz): allows readdressing of the mutated protein F508del-CFTR to the membrane
- effect of guanabenz in the presence of swainsonine (delF508-CFTR [2]; swainsonine, mannosidase inhibitor): low potentiation of the effect of guanabenz
